The assay deals with T1, human LPA1 receptor (Homo sapiens, UniProt Q92633).
T1 construct: TEV protease site; Gal4-VP16 transcription factor; host or cells: Tango EDG2-bla U2OS cells
T1 sequence (Q92633 whole entry, the tested form may be a part): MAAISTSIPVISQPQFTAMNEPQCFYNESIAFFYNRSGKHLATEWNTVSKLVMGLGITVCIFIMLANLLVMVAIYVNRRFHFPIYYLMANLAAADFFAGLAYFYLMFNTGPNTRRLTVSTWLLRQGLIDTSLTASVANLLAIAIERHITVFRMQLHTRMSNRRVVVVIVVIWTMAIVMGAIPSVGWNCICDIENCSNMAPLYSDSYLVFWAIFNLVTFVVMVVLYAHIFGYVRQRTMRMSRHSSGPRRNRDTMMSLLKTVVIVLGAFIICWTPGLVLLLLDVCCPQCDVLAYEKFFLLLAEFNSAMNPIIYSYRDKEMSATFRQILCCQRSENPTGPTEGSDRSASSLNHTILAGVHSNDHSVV
Put plainly: Beta-arrestin recruitment assay to determine IC50 values for human LPAR1. In kind it is cell-based. To be noted: Tango EDG2-bla U2OS cells, antagonist assay, LPA 18:1 500 nM final. An excerpt:
Beta-Arrestin Recruitment Assay to Determine IC50 Values for Human LPAR1
The Tango™ EDG2-bla U2OS cells are obtained from Invitrogen. These cells contain the human LPA1 receptor cDNA linked to a TEV protease site and a Gal4-VP16 transcription factor integrated into the Tango™ GPCR-bla U2OS parental cell line. This parental cell line stably expresses a beta-arrestin/TEV protease fusion protein and the beta-lactamase (bla) reporter gene under the control of a UAS response element. Upon LPA (agonist) binding, LPA1 receptor gets activated, leading to arrestin-protease recruitment and proteolytic release of the transcription factor: The transcription factor then regulates transcription of a beta-lactamase reporter construct, which is measured upon addition of the live-cell substrate.
10′000 Tango™ EDG2-bla U2OS cells are seeded in a 384-well black with clear bottom plate in 30 μl Freestyle 293 Expression Medium (Invitrogen) and incubated for 20 h at 37° C., 5% CO2. For antagonist assays, 5 μl of test compound (dilution series in DMSO/Freestyle 293 Expression medium/0.1% fatty acid free BSA (Sigma)) or buffer control are added per well and incubated for 30 min at 37° C., 5% CO2. 5 μl of LPA 18:1 (500 nM final) (solution in Freestyle 293 Expression medium/0.1% fatty acid free BSA (Sigma)) are added per well and the plate incubated for 16 h at 37° C., 5% CO2. Cells are then loaded with LiveBLAzer-FRET™ B/G Substrate (Invitrogen) for 2 h in the dark and the fluorescence emission at 460 nm and 530 nm is measured using the SynergyMx reader (BioTek). Following the background subtraction from both channels, the 460/530 nm emission ratio for each well is calculated, then plotted and fitted to a 4-parameter logistic function to obtain IC50 values. IC50 is the concentration of antagonist inhibiting 50% of the maximal response.
For orientation: Arrestin recruitment assays detect the binding of arrestin to an activated receptor.
With “4-(4-((6-chloro-4-methoxypyridin-3-yl)carbamoyl)-4-(2-isopropylphenyl)piperidin-1-yl)-2,2-dimethyl-4-oxobutanoic acid [Example 19-20]”, the IC50 (as a rule, the concentration that inhibits the measured activity by half) turned out to be 0.022 µM.
In the case of `COc1cc(F)ncc1NC(=O)C1(c2ccccc2C(C)C)CNC1` [Example 1, N-(6-fluoro-4-methoxypyridin-3-yl)-3-(2-isopropylphenyl)azetidine-3-carboxamide], the IC50 was determined as 0.048 µM.
For `COc1ccncc1NC(=O)C1(c2ccccc2C(C)C)CNC1` [Example 2, 3-(2-isopropylphenyl)-N-(4-methoxypyridin-3-yl)azetidine-3-carboxamide] the value was 0.074 µM; for `COc1cc(Cl)ncc1NC(=O)C1(c2ccccc2C(C)C)CNC1` [Example 3, N-(6-chloro-4-methoxypyridin-3-yl)-3-(2-isopropylphenyl)azetidine-3-carboxamide], 0.004 µM.
In the case of `COc1cc(Br)ncc1NC(=O)C1(c2ccccc2C(C)C)CNC1` [Example 4, N-(6-bromo-4-methoxypyridin-3-yl)-3-(2-isopropylphenyl)azetidine-3-carboxamide], the IC50 was found to be 0.006 µM.
In the case of `CCOc1cc(Cl)ncc1NC(=O)C1(c2ccccc2C(C)C)CNC1` [Example 5, N-(6-chloro-4-ethoxypyridin-3-yl)-3-(2-isopropylphenyl)azetidine-3-carboxamide], the half-maximal inhibitory concentration (IC50) turned out to be 0.003 µM.
Then `CC(C)Oc1cc(Cl)ncc1NC(=O)C1(c2ccccc2C(C)C)CNC1` [Example 6, N-(6-chloro-4-isopropoxypyridin-3-yl)-3-(2-isopropylphenyl)azetidine-3-carboxamide], with 0.003 µM; and `CC(C)c1ccccc1C1(C(=O)Nc2cnc(Cl)cc2OC2CC2)CNC1` [Example 7, N-(6-chloro-4-cyclopropoxypyridin-3-yl)-3-(2-isopropylphenyl)azetidine-3-carboxamide], with 0.041 µM; and `COCCOc1cc(Cl)ncc1NC(=O)C1(c2ccccc2C(C)C)CNC1` [Example 8, N-(6-chloro-4-(2-methoxyethoxy)pyridin-3-yl)-3-(2-isopropylphenyl)azetidine-3-carboxamide], with 0.252 µM.
For `COC[C@H](C)Oc1cc(Cl)ncc1NC(=O)C1(c2ccccc2C(C)C)CNC1` [Example 9, (S)-N-(6-chloro-4-((1-methoxypropan-2-yl)oxy)pyridin-3-yl)-3-(2-isopropylphenyl)azetidine-3-carboxamide] the value was 0.004 µM; for `COc1cc(Cl)ncc1NC(=O)C1(c2ccccc2C(C)C)CCNCC1` [Example 10, N-(6-chloro-4-methoxypyridin-3-yl)-4-(2-isopropylphenyl)piperidine-4-carboxamide], 0.012 µM; for `COc1cc(C)ncc1NC(=O)C1(c2ccccc2C(C)C)CNC1` [Example 11, 3-(2-isopropylphenyl)-N-(4-methoxy-6-methylpyridin-3-yl)azetidine-3-carboxamide], 0.036 µM.
In the case of `COc1cc(C(F)(F)F)ncc1NC(=O)C1(c2ccccc2C(C)C)CNC1` [Example 12, 3-(2-isopropylphenyl)-N-(4-methoxy-6-(trifluoromethyl)pyridin-3-yl)azetidine-3-carboxamide], the IC50 was found to be 1.2 µM.
Take `COc1cc(Cl)ncc1NC(=O)C1(c2c(F)cccc2C(C)C)CNC1` [Example 13, N-(6-chloro-4-methoxypyridin-3-yl)-3-(2-fluoro-6-isopropylphenyl)azetidine-3-carboxamide]: the IC50 was found to be 0.003 µM.
With `COc1cc(Cl)ncc1NC(=O)C1(c2cc(F)ccc2C(C)C)CNC1` [Example 14, N-(6-chloro-4-methoxypyridin-3-yl)-3-(5-fluoro-2-isopropylphenyl)azetidine-3-carboxamide], the IC50 turned out to be 0.012 µM.
For `COc1cc(Cl)ncc1NC(=O)C1(c2ncccc2C(C)C)CNC1` [Example 15, N-(6-chloro-4-methoxypyridin-3-yl)-3-(3-isopropylpyridin-2-yl)azetidine-3-carboxamide], the IC50 is 0.196 µM.
For `COc1cc(Cl)ncc1NC(=O)C1(c2nc(F)ccc2C(C)C)CNC1` [Example 16, N-(6-chloro-4-methoxypyridin-3-yl)-3-(6-fluoro-3-isopropylpyridin-2-yl)azetidine-3-carboxamide] the value was 0.419 µM; for `COc1cc(Cl)ncc1NC(=O)C1(c2ccccc2C2CCCC2)CNC1` [Example 17, N-(6-chloro-4-methoxypyridin-3-yl)-3-(2-cyclopentylphenyl)azetidine-3-carboxamide], 0.003 µM.
For `COc1cc(Cl)ncc1NC(=O)C1(c2ccccc2C(C)C)CN(C(C)C)C1` [Example 18-1, N-(6-chloro-4-methoxypyridin-3-yl)-1-isopropyl-3-(2-isopropylphenyl)azetidine-3-carboxamide] the value was 0.009 µM; for `COc1cc(Cl)ncc1NC(=O)C1(c2ccccc2C(C)C)CN(CC(C)C)C1` [Example 18-2, N-(6-chloro-4-methoxypyridin-3-yl)-1-isobutyl-3-(2-isopropylphenyl)azetidine-3-carboxamide], 0.035 µM; for `COc1cc(Cl)ncc1NC(=O)C1(c2ccccc2C(C)C)CN(CCO)C1` [Example 18-3, N-(6-chloro-4-methoxypyridin-3-yl)-1-(2-hydroxyethyl)-3-(2-isopropylphenyl)azetidine-3-carboxamide], 0.037 µM.
With `COc1cc(Cl)ncc1NC(=O)C1(c2ccccc2C(C)C)CN(CCc2nnn[nH]2)C1` [Example 18-4, 1-(2-(1H-tetrazol-5-yl)ethyl)-N-(6-chloro-4-methoxypyridin-3-yl)-3-(2-isopropylphenyl)azetidine-3-carboxamide], the IC50 amounted to 0.143 µM.
Then `COc1cc(Cl)ncc1NC(=O)C1(c2ccccc2C(C)C)CN(CCCc2nnn[nH]2)C1` [Example 18-5, 1-(3-(1H-tetrazol-5-yl)propyl)-N-(6-chloro-4-methoxypyridin-3-yl)-3-(2-isopropylphenyl)azetidine-3-carboxamide], with 0.347 µM.
With `COc1cc(Cl)ncc1NC(=O)C1(c2ccccc2C(C)C)CN(CC(=O)O)C1` [Example 18-6, 2-(3-((6-chloro-4-methoxypyridin-3-yl)carbamoyl)-3-(2-isopropylphenyl)azetidin-1-yl)acetic acid], the IC50 is 0.128 µM.
Then `COc1cc(Cl)ncc1NC(=O)C1(c2ccccc2C(C)C)CN(CCN)C1` [Example 18-7, 1-(2-aminoethyl)-N-(6-chloro-4-methoxypyridin-3-yl)-3-(2-isopropylphenyl)azetidine-3-carboxamide], with 0.044 µM.
Then `COc1cc(Cl)ncc1NC(=O)C1(c2ccccc2C(C)C)CN(C2CCC2)C1` [Example 18-8, N-(6-chloro-4-methoxypyridin-3-yl)-1-cyclobutyl-3-(2-isopropylphenyl)azetidine-3-carboxamide], with 0.003 µM; and `COc1cc(Cl)ncc1NC(=O)C1(c2ccccc2C(C)C)CN(C2COC2)C1` [Example 18-9, N-(6-chloro-4-methoxypyridin-3-yl)-3-(2-isopropylphenyl)-1-(oxetan-3-yl)azetidine-3-carboxamide], with 0.022 µM; and `COc1cc(Cl)ncc1NC(=O)C1(c2ccccc2C(C)C)CN(CC2(F)CC2)C1` [Example 18-10, N-(6-chloro-4-methoxypyridin-3-yl)-1-((1-fluorocyclopropyl)methyl)-3-(2-isopropylphenyl)azetidine-3-carboxamide], with 0.076 µM.
For `COc1cc(Cl)ncc1NC(=O)C1(c2ccccc2C(C)C)CN(C[C@@H]2COC(C)(C)O2)C1` [Example 18-11, (R)-N-(6-chloro-4-methoxypyridin-3-yl)-1-((2,2-dimethyl-1,3-dioxolan-4-yl)methyl)-3-(2-isopropylphenyl)azetidine-3-carboxamide], the IC50 came to 0.136 µM.
`COc1cc(Cl)ncc1NC(=O)C1(c2ccccc2C(C)C)CN(C[C@@H](O)CO)C1` [Example 18-12, (R)-N-(6-chloro-4-methoxypyridin-3-yl)-1-(2,3-dihydroxypropyl)-3-(2-isopropylphenyl)azetidine-3-carboxamide]: the IC50 turned out to be 0.028 µM.
Then `COc1cc(Cl)ncc1NC(=O)C1(c2ccccc2C(C)C)CN(Cc2cc[nH]n2)C1` [Example 18-13, 1-((1H-pyrazol-3-yl)methyl)-N-(6-chloro-4-methoxypyridin-3-yl)-3-(2-isopropylphenyl)azetidine-3-carboxamide], with 0.129 µM; and `COc1cc(Cl)ncc1NC(=O)C1(c2ccccc2C(C)C)CN(Cc2cn[nH]c2)C1` [Example 18-14, 1-((1H-pyrazol-4-yl)methyl)-N-(6-chloro-4-methoxypyridin-3-yl)-3-(2-isopropylphenyl)azetidine-3-carboxamide], with 0.074 µM; and `COc1cc(Cl)ncc1NC(=O)C1(c2ccccc2C(C)C)CN(Cc2c[nH]nn2)C1` [Example 18-15, 1-((1H-1,2,3-triazol-4-yl)methyl)-N-(6-chloro-4-methoxypyridin-3-yl)-3-(2-isopropylphenyl)azetidine-3-carboxamide], with 0.061 µM.

The record behind these values is US12479820B2, “Pyridin-3-yl derivatives” (Idorsia Pharmaceuticals Ltd, priority 2019, dated 2025).
